Biological target: SARS-CoV-2 PLpro (Severe acute respiratory syndrome coronavirus 2, UniProt P0DTD1)
Experiment: biochemical
Format: biochemical
Settings: concentration not stated

Row | SMILES | inhibition activity in SARS-CoV-2 PLpro enzymatic activity
1 | C[C@@H]1O[C@@H](OC[C@H]2O[C@@H](Oc3c(-c4ccc(O)c(O)c4)oc4cc(O)cc(O)c4c3=O)[C@H](O)[C@@H](O)[C@@H]2O)[C@H](O)[C@H](O)[C@H]1O [rutin] | more than 50%
2 | C/C=C1/[C@H](O[C@@H]2O[C@H](CO)[C@@H](O)[C@H](O)[C@H]2O)OC=C(C(=O)OC)[C@H]1CC(=O)OCCc1ccc(O)c(O)c1 [oleuropein] | more than 50%
3 | O=c1c2cc(O)c(O)cc2oc2cc(O)c([C@@H]3O[C@H](CO)[C@@H](O)[C@H](O)[C@H]3O)c(O)c12 [mangiferin, 2-β-D-glucopyranosyl-1,3,6,7-tetrahydroxy-9H-xanthan-9-one] | more than 50%
